Results on 21 compounds are retold here after patent US8697690B2, “Isoindolone M1 receptor positive allosteric modulators” (Merck Sharp & Dohme Corp., priority 2010, dated 2014).

The test addresses T1, acetylcholine muscarinic M1 receptor (Homo sapiens, UniProt P11229).
T1 construct: expressed in transfected cells; host or cells: CHOnfat cells (CHO with NFAT reporter background), Geneticin-selected
T1 sequence (P11229 1-460): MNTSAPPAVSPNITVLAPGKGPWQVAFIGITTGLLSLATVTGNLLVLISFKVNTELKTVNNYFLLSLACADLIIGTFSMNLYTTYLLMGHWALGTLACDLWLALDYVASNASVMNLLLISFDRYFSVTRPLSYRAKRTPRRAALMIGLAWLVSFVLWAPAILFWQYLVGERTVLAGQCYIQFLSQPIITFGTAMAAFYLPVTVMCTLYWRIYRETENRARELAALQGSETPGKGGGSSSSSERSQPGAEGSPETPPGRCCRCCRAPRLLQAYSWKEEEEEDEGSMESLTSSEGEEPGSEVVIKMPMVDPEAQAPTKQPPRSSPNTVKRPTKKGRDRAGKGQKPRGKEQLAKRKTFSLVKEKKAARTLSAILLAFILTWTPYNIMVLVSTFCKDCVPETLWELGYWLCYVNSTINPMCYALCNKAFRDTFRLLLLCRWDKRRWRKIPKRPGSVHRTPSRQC
Briefly: muscarinic FLIPR assay: intracellular calcium in CHOnfat/hM1 cells, potentiation of EC20 acetylcholine. It is filed as cell-based. To be noted: IP = inflection point calculated from FLIPR values, 4 min preincubation, then EC20 acetylcholine (3 nM final). The method, then: The assay studies the effect of one or several concentrations of test compounds on basal or acetylcholine-stimulated Ca^2+ levels using FLIPR.
Compounds are prepared and subjected to a preincubation period of 4 min. Thereafter, a single EC20 concentration of acetylcholine is added to each well (3 nM final). The intracellular Ca^2+ level of each sample is measured and compared to an acetylcholine control to determine any modulatory activity.
Cells: CHOnfat/hM1, hM2, hM3 or hM4 cells are plated 24 hr before the assay at a density of 18,000 cells/well (100 μL) in a 384 well plate. CHOnfat/hM1 and CHOnfat/hM3 Growth Medium: 90% DMEM (Hi Glucose); 10% HI FBS; 2 mM L-glutamine; 0.1 mM NEAA; Pen-Strep; and 1 mg/ml Geneticin, are added. For M2Gqi5CHOnfat and M4Gqi5CHOnfat cells, an additional 600 ug/ml hygromycin is added.
Equipment: 384 well plate, 120 μL addition plate; 96-well Whatman 2 ml Uniplate Incubator, 37° C., 5% CO2; Skatron EMBLA-384 Plate Washer; Multimek Pipetting System; Genesis Freedom 200 System; Mosquito System; Temo Nanoliter Pipetting System; and FLIPR^384 Fluorometric Imaging Plate Reader System are used.
Buffers. Assay Buffer: Hanks Balanced Salt Solution, with 20 mM Hepes, 2.5 mM Probenecid (Sigma P-8761) first dissolved in 1 N NaOH, 1% Bovine Serum Albumin (Sigma A-9647). Dye Loading Buffer: Assay Buffer plus 1% Fetal Bovine Serum and Fluo-4AM/Pluronic Acid Mixture. 2 mM Fluo-4AM ester stock in DMSO (Molecular Probes F-14202) Concentration of 2 μM in buffer for a final concentration of 1 μM in Assay. 20% Pluronic Acid Solution stock, with concentration of 0.04% in Buffer, 0.02% in Assay.
65 μL of 2 mM Fluo-4AM are mixed with 130 μL of 20% Pluronic Acid. The resulting solution and 650 μL FBS is added to the assay buffer for a total volume of 65 mL. Positive Controls: 4-Br-A23187: 10 mM in DMSO; final concentration […]. Acetylcholine: 10 mM in water, working stock at both 20 μM and 30 μM in assay buffer, final concentration of 10 μM. This is used to check the maximum stimulation of the CHOK1/hM1 cells. 20 μM (2×) acetylcholine is added in the preincubation part of the assay, and the 30 μM (3×) stock is added in the second part. (EC20)Acetylcholine: 10 mM in water, working stock of 9 nM (3×), and final concentration in assay is 3 nM. This is used after the preincubation with test compounds. Addition of the EC20 Acetylcholine to each well with a test compound will ascertain any modulator activity. 24 wells contain 3 nM Acetylcholine alone as a control.
Determining Activity of Putative Compounds:
Screening Plate Compounds are titrated in 96-well plates (columns 2-11), 100% DMSO, started at a concentration of 15 mM (150× stock concentration), and 3-fold serial dilutions using Genesis Freedom200 System. Four 96-well plates are combined into a 384-well plate using Mosquito Nanoliter Pipetting System by transferring 1 μl of serial diluted compounds to each well, and 1 mM acetylcholine (100× stock concentration) were added as a control. Using Temo, 49 μl assay buffer is added to each well of the 384-well plate right before assay.
In a 96-well Whatman 2 ml Uniplate, 9 nM Acetylcholine (3×) is pipetted into wells corresponding to the screening compounds, and into control wells. The 30 μM acetylcholine control (3×) is added into control wells, and the 3× agonist plate is transferred into a 384 well plate.
Cells are washed three times with 100 μL of buffer, leaving 30 μL of buffer in each well. Using Multimek, 30 μL of Dye Loading Buffer is added into each well and incubated at 37° C., 5% CO2 for up to one hr.
After 60 min, the cells are washed three times with 100 μL of buffer, leaving 30 μL of buffer in each well. The cell plate, screening plate, and agonist addition plates are placed on the platform in the FLIPR and the door closed. A signal test to check background fluorescence and basal fluorescence signal is performed. Laser intensity is adjusted if necessary. […]
By EC50 is commonly meant the concentration that produces a half-maximal response. As to `CC1c2c(cc(Cc3ccc(Cl)nc3)c3ccccc23)C(=O)N1c1ccccc1F` (racemic) [Example 15, (±)-5-[(6-Chloropyridin-3-yl)methyl]-2-(2-fluorophenyl)-1-methyl-1,2-dihydro-3H-benzo[e]isoinol-3-one], the EC50 was 665 nM. For `O=C1c2nc(Cc3ccc(Cl)nc3)c3ccccc3c2CN1[C@H]1CCCC[C@@H]1O` (racemic) [Example 16, (±)-5-[(6-Chloropyridin-3-yl)methyl]-2-[trans-2-hydroxycyclohexyl]-1,2-dihydro-3H-pyrrolo[3,4-c]isoquinoline-3-one] the value was 49 nM; for `O=C1c2nc(Cc3ccc(-n4cccn4)nc3)c3ccccc3c2CN1[C@H]1CCCC[C@@H]1O` (racemic) [Example 17, (±)-2-[trans-2-Hydroxycyclohexyl]-5-{[6-(1H-pyrazol-1-yl)pyridine-3-yl]methyl}-1,2-dihydro-3H-pyrrolo[3,4-c]isoquinoline-3-one], 29 nM; for `COc1ccc(Cc2cc3c(c4ccccc24)CN([C@H]2CCCC[C@@H]2O)C3=O)cc1` [Example 1, 2-[(1S,2S)-2-Hydroxycyclohexyl]-5-(4-methoxybenzyl)-1,2-dihydro-3H-benzo[e]isoindol-3-one], 53 nM. The result for `Cc1ccc(Cc2cc3c(c4ccccc24)CN([C@H]2CCCC[C@@H]2O)C3=O)cn1` [Example 2, 2-[(1S,2S)-2-Hydroxycyclohexyl]-5-[(6-methylpyridin-3-yl)methyl]-1,2-dihydro-3H-benzo[e]isoindol-3-one] reads 18 nM. The result for `C=Cc1ccc(Cc2cc3c(c4ccccc24)CN([C@H]2CCCC[C@@H]2O)C3=O)cn1` [Example 3, 2-[(1S,2S)-2-Hydroxycyclohexyl]-5-[(6-vinylpyridin-3-yl)methyl]-1,2-dihydro-3H-benzo[e]isoindol-3-one] reads 11 nM; that for `O=C1c2cc(Cc3ccc(Cl)nc3)c3ccccc3c2CN1[C@H]1CCCC[C@@H]1F` [Example 4, 5-[(6-Chloropyridin-3-yl)methyl]-2-[(2S)-2-fluorocyclohexyl]-1,2-dihydro-3H-benzo[e]isoindol-3-one], 310 nM. As to `O=C1c2cc(Cc3ccc(Cl)nc3)c3ccccc3c2CN1C1C=CCCC1` (stereo not drawn) [Example 5, 5-[(6-Chloropyridin-3-yl)methyl]-2-cyclohex-2-en-1-yl-1,2-dihydro-3H-benzo[e]isoindol-3-one], the EC50 was 2470 nM. For `O=C1c2cc(Cc3cccnc3)c3ccccc3c2CN1[C@H]1CCCC[C@@H]1O` [Example 6, 2-[(1S,2S)-2-Hydroxycyclohexyl]-5-(pyridin-3-ylmethyl)-1,2-dihydro-3H-benzo[e]isoindol-3-one] the value was 11 nM.

As to `O=C1c2cc(Cc3ccc(N4CCOCC4)nc3)c3ccccc3c2CN1[C@H]1CCCC[C@@H]1O` [Example 7, 2-[(1S,2S)-2-Hydroxycyclohexyl]-5-[(6-morpholin-4-ylpyridin-3-yl)methyl]-1,2-dihydro-3H-benzo[e]isoindol-3-one], the concentration for a half-maximal effect (EC50) is 14 nM. For `O=C1c2cc(Cc3ccc(Cl)nc3)c3ccccc3c2CN1[C@H]1CCOC[C@@H]1O` [Example 8, 5-[(6-Chloropyridin-3-yl)methyl]-2-[(3R,4S)-3-hydroxytetrahydro-2H-pyran-4-yl]-1,2-dihydro-3H-benzo[e]isoindol-3-one] the value was 12 nM; for `N#Cc1ccc(Cc2cc3c(c4ccccc24)CN([C@H]2CCCC[C@@H]2O)C3=O)cn1` [Example 9, 5-({2-[(1S,2S)-2-Hydroxycyclohexyl]-3-oxo-2,3-dihydro-1H-benzo[e]isoindol-5-yl}methyl)pyridine-2-carbonitrile], 13 nM. The result for `CSc1ccc(Cc2cc3c(c4ccccc24)CN([C@H]2CCCC[C@@H]2O)C3=O)cn1` [Example 10, 2-[(1S,2S)-2-Hydroxycyclohexyl]-5-{[6-(methylthio)pyridine-3-yl]methyl}-1,2-dihydro-3H-benzo[e]isoindol-3-one] reads 29 nM. Take `COc1ccc(Cc2cc3c(c4ccccc24)CN([C@H]2COCC[C@@H]2O)C3=O)cn1` [Example 11, 2-[(3S,4S)-4-Hydroxytetrahydro-2H-pyran-3-yl]-5-[(6-methoxypyridin-3-yl)methyl]-1,2-dihydro-3H-benzo[e]isoindol-3-one]: the EC50 was 52 nM.

As to `CC(=O)O[C@H]1COCC[C@@H]1N1Cc2c(cc(Cc3ccc(O)nc3)c3ccccc23)C1=O` [Example 12, 2-O-Acetyl-1,5-anhydro-3,4-dideoxy-3-{3-oxo-5-[(6-oxo-1,6-dihydroyridin-3-yl)methyl]-1,3-dihydro-2H-benzo[e]isoindol-2-yl)-L-threo-pentitol], the EC50 is 5200 nM. For `O=C1c2cc(Cc3ccc(O)nc3)c3ccccc3c2CN1[C@H]1CCOC[C@@H]1O` [Example 13, 1,5-Anhydro-2,3-dideoxy-3-{3-oxo-5-[(6-oxo-1,6-dihydropyridin-3-yl)methyl]-1,3-dihydro-2H-benzo[e]isoindol-2-yl}-L-threo-pentitol] the value was 20 nM; for `COc1ccc(Cc2cc3c(c4ccccc24)CN(c2ncccc2C(F)(F)F)C3=O)cn1` [Example 14, 5-[(6-Methoxypyridin-3-yl)methyl]-2-[3-(trifluoromethyl)pyridin-2-yl]-1,2-dihydro-3H-benzo[e]isoindol-3-one], 144 nM. Regarding `COc1ccc(Cc2cc3c(c4ncccc24)C(C)(C)N([C@H]2CCCC[C@@H]2O)C3=O)cn1` [Example 18, 8-[(1S,2S)-2-Hydroxycyclohexyl]-5-[(6-methoxypyridin-3-yl)methyl]-9,9-dimethyl-8,9-dihydro-7H-pyrrolo[3,4-h]quinolin-7-one], the EC50 is 310 nM. For `O=C1c2cc(Cc3ccc(OCc4ccccc4)nc3)c3cccnc3c2CN1[C@H]1CCCC[C@@H]1O` [Example 19] the value was 41 nM. For `O=C1CCC(Cc2cc3c(c4ncccc24)CN([C@H]2CCCC[C@@H]2O)C3=O)CN1` (stereo partly drawn) [Example 20, 8-[(1S,2S)-2-Hydroxycyclohexyl]-5-[(6-oxopiperidin-3-yl)methyl]-3,9-dihydro-7H-pyrrolo[3,4-h]quinolin-7-one] the value was 200 nM; for `O=C1c2cc(Cc3ccc(Cl)nc3)c3cccnc3c2C(CC(O)CO)N1[C@H]1CCCC[C@@H]1O` (stereo partly drawn) [Example 21, 5-[(6-Chloropyridin-3-yl)methyl]-9-(2,3-dihydroxypropyl)-8-[(1S,2S)-2-hydroxycyclohexyl]-8,9-dihydro-7H-pyrrolo[3,4-h]quinolin-7-one], 19 nM.
